# Assays:
# [1] = test system: UGT85C2 and UGT91D-like 3; experiment: Simultaneous reaction of UGT85C2 and UGT91D-like 3 (LC-MS analysis); format: biochemical, stevia; conditions: FIG. 4 panel 3
# UGT85C2 = biological target: T1, UGT85C2 (Stevia rebaudiana, UniProt Q6VAB0, A65S/E71Q/K220T); experiment: Assay for enzyme activity of UGT85C2 (glucosylation with UDP-glucose, LC-MS analysis); format: biochemical; conditions: 0.1 mM substrate, 2 mM UDP-glucose, pH 7.0, 30° C., one hour; FIG. 4 panel 1
# T1 construct: The ORF fragment of about 1.4 kb from UGT85C2 was excised using the restriction enzyme sites of NdeI and BglII; made in house; host or cells: Escherichia coli BL21 (DE3)
# T1 sequence (Q6VAB0 whole entry A65S/E71Q/K220T, the tested form may be a part): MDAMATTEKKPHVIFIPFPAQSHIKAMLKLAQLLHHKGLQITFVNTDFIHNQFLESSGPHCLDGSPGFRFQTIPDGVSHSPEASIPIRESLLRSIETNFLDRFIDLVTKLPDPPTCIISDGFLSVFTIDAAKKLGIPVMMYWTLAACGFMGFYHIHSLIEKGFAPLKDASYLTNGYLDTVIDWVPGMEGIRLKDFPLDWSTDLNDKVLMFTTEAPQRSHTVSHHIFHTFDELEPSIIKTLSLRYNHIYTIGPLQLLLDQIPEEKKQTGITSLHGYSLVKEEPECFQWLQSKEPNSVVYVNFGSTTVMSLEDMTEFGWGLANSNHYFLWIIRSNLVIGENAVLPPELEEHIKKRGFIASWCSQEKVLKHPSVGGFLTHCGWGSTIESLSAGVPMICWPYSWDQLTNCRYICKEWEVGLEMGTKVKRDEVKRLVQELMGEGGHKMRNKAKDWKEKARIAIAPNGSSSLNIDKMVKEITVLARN
# Procedure: Standard conditions for the enzyme reaction were as follows. A reaction solution (2 mM UDP-glucose, 0.1 mM glycosyl acceptor substrate (steviol), 100 mM potassium phosphate buffer (pH 7.0) and 25 μl of purified UGT85C2 enzyme solution) was prepared in distilled water to become 50 μl, and reacted at 30° C. for an hour. The LC-MS analysis was performed for 5 μl of the enzyme reaction solution under the following conditions.
# Column: Waters Sunfire C18 3.5 um 2.0 mm I.D.×20 mm
# Moving phase: A: MilliQ Water (+0.05% formic acid), B: MeCN
# Gradient: linear gradient of B from 15% to 55% (20 mins.)
# [2] = biological target: T2, UGT85C2 and UGT91D-like 3 (Stevia rebaudiana, UniProt Q6VAB0, A65S/E71Q/K220T); experiment: Simultaneous reaction of UGT85C2 and UGT91D-like 3 (LC-MS analysis); format: biochemical; conditions: concluded from simultaneous reaction, FIG. 4 panel 3
# T2 construct: The ORF fragment of about 1.4 kb from UGT85C2 was excised using the restriction enzyme sites of NdeI and BglII; made in house; host or cells: Escherichia coli BL21 (DE3), stated for UGT85C2 only
# T2 sequence (Q6VAB0 whole entry A65S/E71Q/K220T, the tested form may be a part): as above
smiles,measurement,setting,value
C=C1C[C@@]23CC[C@H]4[C@@](C)(CCC[C@@]4(C)C(=O)O)[C@@H]2CC[C@]1(O)C3 [steviol],products formed by simultaneous reaction of UGT85C2 and UGT91D-like 3,[1],steviolbioside (FIG. 4: panel 3: peak C) and stevioside (FIG. 4: panel 3: peak E) were formed
same,"glucosylation of the carboxyl at C19-position by UGT85C2, product additionally formed",UGT85C2,rubusoside (FIG. 4: panel 1: peak D) with the carboxyl at C19-position being glucosylated was additionally formed
same,"glucosylation of the hydroxyl at C-13 position by UGT85C2, product formed",UGT85C2,"glucosylated (FIG. 4, panel 1: peak A) to form steviolmonoside"
C=C1C[C@@]23CC[C@H]4[C@@](C)(CCC[C@@]4(C)C(=O)O)[C@@H]2CC[C@]1(O[C@@H]1O[C@H](CO)[C@@H](O)[C@H](O)[C@H]1O[C@@H]1O[C@H](CO)[C@@H](O)[C@H](O)[C@H]1O)C3 [steviolbioside],glucosylation of the carboxyl at C19-position by UGT85C2 protein,[2],glucosylates the carboxyl at C19-position of steviolbioside

# From patent US10113154B2, “Method for producing steviol glycoside” (SUNTORY HOLDINGS LIMITED, priority 2012, dated 2018)
